Experimental data taken from patent US20170008888A1 (KYORIN PHARMACEUTICAL CO., LTD., priority 2014, published 2017).
Where two headings read alike, the source gives them in different places.

Experiments:
AMPKa1 or AMPKa2 = assay: Probe-based (AX9989) kinase profiling in Jurkat lysate: AMPKa1 or AMPKa2; format: binding; conditions: for AMPKa1 or AMPKa2 Inhibition % at indicated screening concentration: screening concentration 1 μM
Method in brief: (§1)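 Jurkat lysate, HEPES pH 7.5 buffer + 20 mM MnCl2; cpd 15 min RT; AX9989 ATP probe 5 μM final, RT. Trypsin digest, streptavidin capture, LC/MS; % inhibition vs vehicle from labeled-peptide signal.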

AurA = biological target: T1, AurA (Homo sapiens, UniProt O14965); assay: Probe-based (AX9989) kinase profiling in Jurkat lysate: AurA; format: binding
T1 construct: screened for activity against several kinases in Jurkat cells; endogenous in cells; host or cells: Jurkat cell lysate
T1 sequence (O14965 1-403): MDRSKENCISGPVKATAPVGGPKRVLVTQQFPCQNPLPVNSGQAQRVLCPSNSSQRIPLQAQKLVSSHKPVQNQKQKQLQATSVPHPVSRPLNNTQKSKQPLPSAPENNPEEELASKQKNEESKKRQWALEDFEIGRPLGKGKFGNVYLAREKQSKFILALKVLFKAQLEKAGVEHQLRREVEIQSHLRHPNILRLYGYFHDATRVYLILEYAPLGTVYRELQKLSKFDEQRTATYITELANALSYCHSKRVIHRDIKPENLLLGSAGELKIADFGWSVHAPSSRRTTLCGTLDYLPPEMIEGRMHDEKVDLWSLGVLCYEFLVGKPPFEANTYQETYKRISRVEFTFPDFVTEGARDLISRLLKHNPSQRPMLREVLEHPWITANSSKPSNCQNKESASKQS
Method in brief: as §1

ABL or ARG = assay: Probe-based (AX9989) kinase profiling in Jurkat lysate: ABL or ARG; format: binding; conditions: for ABL or ARG Inhibition % at indicated screening concentration: screening concentration 1 μM
Method in brief: as §1

human PBMCs = assay: Human PBMC TNF-α response to endotoxin (ELISA); format: cell-based; conditions: 0.1 μg/ml LPS 16 h, read-out: EC50 for the inhibition of the human PBMC TNF-α response to endotoxin, ave. ± S.D.
Method in brief: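 PBMCs at 2e6 cells/ml in RPMI 1640 with 10% charcoal-dextran-treated FBS were pre-treated 1 h at 37 °C with compound (4-point 1:5 dilution from 10 μM). Stimulation with 0.1 μg/ml E. coli 0111:B4 LPS for 16 h; TNF-α measured by ELISA (A450) in 25-fold diluted supernatant.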

[1] = biological target: T2, recombinant human ERK5 catalytic domain (Homo sapiens, UniProt Q13164); assay: Recombinant human ERK5 radiometric (HotSpot) assay; format: biochemical; conditions: 10 μM ATP, 20 μM myelin basic protein substrate; read-out: rhERK5 IC50
T2 construct: Recombinant human ERK5 catalytic domain radiometric assays; purchased Reaction Biology, Corp (Malvern, Pa.), which ran the assay as a service
T2 sequence (Q13164 55-347 limits assumed): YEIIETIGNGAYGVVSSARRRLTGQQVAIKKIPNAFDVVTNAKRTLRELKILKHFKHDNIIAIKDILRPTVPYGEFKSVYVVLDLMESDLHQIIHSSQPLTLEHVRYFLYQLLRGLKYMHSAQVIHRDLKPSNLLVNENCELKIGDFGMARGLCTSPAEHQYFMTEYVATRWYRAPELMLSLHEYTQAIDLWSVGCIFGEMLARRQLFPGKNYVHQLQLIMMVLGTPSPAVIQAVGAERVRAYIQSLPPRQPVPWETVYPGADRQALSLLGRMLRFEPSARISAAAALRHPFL
Protocol: In this example, potency of the compounds in recombinant human ERK5 was assayed.
Recombinant human ERK5 catalytic domain radiometric assays were performed by Reaction Biology, Corp (Malvern, Pa.). The HotSpot radiometric assay is based on conventional filter-binding assays (Nature Biotechnology (2011) 29: 1039-1045). Compounds were tested at 20 μM down by ⅓ in a 10 point serial dilution series. Briefly, [γ-33P]-ATP was used as the tracer along with 10 μM cold ATP to label ERK5 in the presence of 20 μM myelin basic protein substrate.

[2] = screening concentration 10.0 μM
[3] = screening concentration 1.0 μM, read-out: Kinase inhibition % at indicated screening concentration: AurA
[4] = screening concentration 1 μM, read-out: AurA Inhibition % at indicated screening concentration

SMILES	AMPKa1 or AMPKa2 Inhibition % at indicated screening concentration (AMPKa1 or AMPKa2)	inhibition at 1 µM (AurA; [4]) [%]	ABL or ARG Inhibition % at indicated screening concentration (ABL or ARG)	IC50 [1] [µM]	EC50 (human PBMCs) [µM]	further results
CN1C(=O)c2ccccc2N(C)c2cc(Nc3ccc(C(=O)N4CC[C@@H](N(C)C)C4)cc3F)ncc21 [Compound 110]	–	–	–	–	1.76 ± 0.5	Kinase inhibition % at indicated screening concentration: AMPKa1 or AMPKa2 (AMPKa1 or AMPKa2; [2]): E (E is ≦35%); inhibition at 10 µM (AurA; screening concentration 10.0 μM, read-out: Kinase inhibition % at indicated screening concentration: AurA): 35 to 50%; Kinase inhibition % at indicated screening concentration: ABL or ARG (ABL or ARG; [2]): E (E is ≦35%)
CCOc1cc(C(=O)N2CCOCC2)ccc1Nc1cc2c(cn1)N(C)C(=O)c1ccccc1N2C [Compound 111]	–	–	–	–	0.54	Kinase inhibition % at indicated screening concentration: AMPKa1 or AMPKa2 (AMPKa1 or AMPKa2; screening concentration 1.0 μM): E (E is ≦35%); inhibition at 1 µM (AurA; [3]): ≤ 35%; Kinase inhibition % at indicated screening concentration: ABL or ARG (ABL or ARG; screening concentration 1.0 μM): E (E is ≦35%)
CCOc1cc(C(=O)N2CC(N3CCCCC3)C2)ccc1Nc1cc2c(cn1)N(C)C(=O)c1ccccc1N2C [Compound 114]	–	–	–	–	0.53	Kinase inhibition % at indicated screening concentration: AMPKa1 or AMPKa2 (AMPKa1 or AMPKa2; screening concentration 0.1 μM): E (E is ≦35%); inhibition at 0.1 µM (AurA; screening concentration 0.1 μM, read-out: Kinase inhibition % at indicated screening concentration: AurA): ≤ 35%; Kinase inhibition % at indicated screening concentration: ABL or ARG (ABL or ARG; screening concentration 0.1 μM): E (E is ≦35%)
CCOc1cc(C(=O)N2CC[C@@H](N(C)C)C2)ccc1Nc1cc2c(cn1)N(C)C(=O)c1ccccc1N2C [Compound 115]	–	–	–	–	0.84 ± 0.53	Kinase inhibition % at indicated screening concentration: AMPKa1 or AMPKa2 (AMPKa1 or AMPKa2; screening concentration 1.0 μM): E (E is ≦35%); inhibition at 1 µM (AurA; [3]): ≤ 35%; Kinase inhibition % at indicated screening concentration: ABL or ARG (ABL or ARG; screening concentration 1.0 μM): E (E is ≦35%)
CCOc1cc(C(=O)N2CCC(CN3CCOCC3)CC2)ccc1Nc1cc2c(cn1)N(C)C(=O)c1ccccc1N2C [Compound 120]	–	–	–	–	0.86	Kinase inhibition % at indicated screening concentration: AMPKa1 or AMPKa2 (AMPKa1 or AMPKa2; screening concentration 1.0 μM): E (E is ≦35%); inhibition at 1 µM (AurA; [3]): ≤ 35%; Kinase inhibition % at indicated screening concentration: ABL or ARG (ABL or ARG; screening concentration 1.0 μM): E (E is ≦35%)
CCOc1cc(C(=O)N(CC)CCN(CC)CC)ccc1Nc1cc2c(cn1)N(C)C(=O)c1ccccc1N2C [Compound 122]	–	–	–	–	1.13 ± 0.38	Kinase inhibition % at indicated screening concentration: AMPKa1 or AMPKa2 (AMPKa1 or AMPKa2; screening concentration 1.0 μM): E (E is ≦35%); inhibition at 1 µM (AurA; [3]): ≤ 35%; Kinase inhibition % at indicated screening concentration: ABL or ARG (ABL or ARG; screening concentration 1.0 μM): E (E is ≦35%)
CCOc1cc(C(=O)N2CCN(C3CCN(C)CC3)CC2)ccc1Nc1cc2c(cn1)N(C)C(=O)c1ccccc1N2C [Compound T8]	E (E is ≦35%)	≤ 35	E (E is ≦35%)	< 0.02	0.41 ± 0.12	–
CCOc1cc(C(=O)N2CCC(N3CC[C@@H](O)C3)CC2)ccc1Nc1cc2c(cn1)N(C)C(=O)c1ccccc1N2C [Compound T10]	E (E is ≦35%)	≤ 35	E (E is ≦35%)	0.02 to 0.05	0.65	–
CCOc1cc(C(=O)N2CCC(N3CC[C@H](O)C3)CC2)ccc1Nc1cc2c(cn1)N(C)C(=O)c1ccccc1N2C [Compound T11]	E (E is ≦35%)	≤ 35	E (E is ≦35%)	0.02 to 0.05	0.62	–
CCOc1cc(C(=O)N2CC[C@@H](N3CCN(C)CC3)C2)ccc1Nc1cc2c(cn1)N(C)C(=O)c1ccccc1N2C [Compound T20]	E (E is ≦35%)	≤ 35	E (E is ≦35%)	0.02 to 0.05	0.46 ± 0.14	–
CCOc1cc(C(=O)N2CCC(N3CCCN(C)CC3)CC2)ccc1Nc1cc2c(cn1)N(C)C(=O)c1ccccc1N2C [Compound T31]	E (E is ≦35%)	≤ 35	E (E is ≦35%)	< 0.02	0.49	–
CCOc1cc(C(=O)N(C)[C@H]2CC[C@H](O)CC2)ccc1Nc1cc2c(cn1)N(C)C(=O)c1ccccc1N2C [Compound T64]	E (E is ≦35%)	≤ 35	E (E is ≦35%)	–	0.62	–
CN1CCC(N2CCN(C(=O)c3ccc(Nc4cc5c(cn4)N(C)C(=O)c4ccccc4N5C)c(F)c3)CC2)CC1 [Compound T70]	E (E is ≦35%)	≤ 35	E (E is ≦35%)	–	2.09	–
CN1CCC(N2CCN(C(=O)c3ccc(Nc4cc5c(cn4)N(C)C(=O)c4ccccc4N5C)c(OC(F)F)c3)CC2)CC1 [Compound T76]	E (E is ≦35%)	≤ 35	E (E is ≦35%)	–	1.11	–

Second part, led by results:

AMPKa1 or AMPKa2 Inhibition % at indicated screening concentration (AMPKa1 or AMPKa2)	inhibition at 1 µM (AurA; [4]) [%]	ABL or ARG Inhibition % at indicated screening concentration (ABL or ARG)	IC50 [1] [µM]	SMILES	EC50 (human PBMCs) [µM]	further results
E (E is ≦35%)	≤ 35	E (E is ≦35%)	–	CCOc1cc(C(=O)N2CCC(NC(C)C)C2)ccc1Nc1cc2c(cn1)N(C)C(=O)c1ccccc1N2C (stereo not shown) [Compound T4]	0.49	–
E (E is ≦35%)	≤ 35	E (E is ≦35%)	–	CCOc1cc(C(=O)N2C[C@H]3CCN[C@H]3C2)ccc1Nc1cc2c(cn1)N(C)C(=O)c1ccccc1N2C [Compound T5]	0.84	–
E (E is ≦35%)	≤ 35	E (E is ≦35%)	0.02 to 0.05	CCOc1cc(C(=O)N2CC[C@@H](NCCF)C2)ccc1Nc1cc2c(cn1)N(C)C(=O)c1ccccc1N2C [Compound T9]	0.59	–
E (E is ≦35%)	≤ 35	E (E is ≦35%)	0.02 to 0.05	CCOc1cc(C(=O)N2CCN(CCN(C)C)CC2)ccc1Nc1cc2c(cn1)N(C)C(=O)c1ccccc1N2C [Compound T14]	0.72 ± 0.05	–
E (E is ≦35%)	≤ 35	E (E is ≦35%)	0.02 to 0.05	CCOc1cc(C(=O)N2CCN(CCN3CCOCC3)CC2)ccc1Nc1cc2c(cn1)N(C)C(=O)c1ccccc1N2C [Compound T15]	0.8 ± 0.27	–
E (E is ≦35%)	≤ 35	E (E is ≦35%)	0.02 to 0.05	CCOc1cc(C(=O)N2CCN(C(C)=O)CC2)ccc1Nc1cc2c(cn1)N(C)C(=O)c1ccccc1N2C [Compound T18]	0.82 ± 0.1	–
E (E is ≦35%)	≤ 35	E (E is ≦35%)	0.05 to 0.2	CCOc1cc(C(=O)N2CC[C@H](C#N)C2)ccc1Nc1cc2c(cn1)N(C)C(=O)c1ccccc1N2C [Compound T22]	0.82 ± 0.14	–
